This assay concerns L1210 leukemia ip in BDF1 mice, survival T/C. Nature of the assay: NCI In Vivo Anticancer Drug Screen. Data for tumor model L1210 Leukemia (intraperitoneal) in B6D2F1 (BDF1) mice. The note with it: endpoint: mean survival time, higher = longer survival. Put shortly: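 Tumor was transplanted into mice, which were then dosed with test compound or vehicle alone. Survival was recorded for each group, and the treated figure was expressed relative to the control figure.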

Setting [1] is: dose: 100.0 mg/kg/injection, schedule: Q04DX003 (ip), vehicle: saline with Tween-80.
Setting [2] is: dose: 200.0 mg/kg/injection, schedule: Q04DX003 (ip), vehicle: saline with Tween-80.
Where [3] appears, read: dose: 400.0 mg/kg/injection, schedule: Q04DX003 (ip), vehicle: saline with Tween-80.
The mark [4] stands for this setting: dose: 100.0 mg/kg/injection, schedule: Q01DX009 (ip), vehicle: saline with Tween-80.
[5] abbreviates: dose: 200.0 mg/kg/injection, schedule: Q01DX009 (ip), vehicle: saline with Tween-80.
[6] abbreviates: dose: 50.0 mg/kg/injection, schedule: Q04DX003 (ip), vehicle: saline.
The mark [7] stands for this setting: dose: 100.0 mg/kg/injection, schedule: Q04DX003 (ip), vehicle: saline.
The mark [8] stands for this setting: dose: 100.0 mg/kg/injection, schedule: Q01DX009 (ip), vehicle: Klucel (hydroxypropylcellulose) (HPC).
Where [9] appears, read: dose: 200.0 mg/kg/injection, schedule: Q01DX009 (ip), vehicle: Klucel (hydroxypropylcellulose) (HPC).
The mark [10] stands for this setting: dose: 400.0 mg/kg/injection, schedule: Q01DX009 (ip), vehicle: Klucel (hydroxypropylcellulose) (HPC).
Setting [11] is: dose: 100.0 mg/kg/injection, schedule: Q04DX003 (ip), vehicle: Klucel (hydroxypropylcellulose) (HPC).
The mark [12] stands for this setting: dose: 200.0 mg/kg/injection, schedule: Q04DX003 (ip), vehicle: Klucel (hydroxypropylcellulose) (HPC).
The mark [13] stands for this setting: dose: 400.0 mg/kg/injection, schedule: Q04DX003 (ip), vehicle: Klucel (hydroxypropylcellulose) (HPC).
[14] abbreviates: dose: 100.0 mg/kg/injection, schedule: Q01DX001 (ip), vehicle: saline.
[15] abbreviates: dose: 200.0 mg/kg/injection, schedule: Q01DX001 (ip), vehicle: saline.
[16] abbreviates: dose: 400.0 mg/kg/injection, schedule: Q01DX001 (ip), vehicle: saline.

Where “and” joins values, the source holds several entries; their conditions need not be identical. Identical values can stand only once. Inconclusive results and toxic doses are left out.

As for `Cc1cccc(NC(=S)/C(=C(/[O-])c2ccccc2)[n+]2ccc3ccccc3c2)c1`, the T/C was 98 % of control (dose: 100.0 mg/kg/injection, schedule: Q04DX002 (ip), vehicle: saline with Tween-80); 98 % of control (dose: 200.0 mg/kg/injection, schedule: Q04DX002 (ip), vehicle: saline with Tween-80); 91 % of control (dose: 400.0 mg/kg/injection, schedule: Q04DX002 (ip), vehicle: saline with Tween-80).
Turning to `O=Nc1ccc(NO)cc1`, the T/C under setting [1] is 98 % of control and 100 % of control; the T/C under setting [2] was 98 % of control and 100 % of control; the T/C under setting [3] was 108 % of control and 91 % of control.
Turning to `CCCCCSC(=O)C(N)=O`, the T/C under setting [4] was 102 % of control; the T/C under setting [1] is 100 % of control; the T/C under setting [5] was 100 % of control; the T/C under setting [2] is 109 % of control; the T/C (dose: 400.0 mg/kg/injection, schedule: Q01DX009 (ip), vehicle: saline with Tween-80) is 96 % of control; the T/C under setting [3] was 92 % of control.
For `CCOC(CN(Cc1ccc(OC)c(OCc2ccccc2)c1)S(=O)(=O)c1ccc(C)cc1)OCC`, the T/C is, setting by setting: (dose: 25.0 mg/kg/injection, schedule: Q01DX009 (ip), vehicle: water) 102 % of control; (dose: 50.0 mg/kg/injection, schedule: Q01DX009 (ip), vehicle: water) 94 % of control; (dose: 100.0 mg/kg/injection, schedule: Q01DX009 (ip), vehicle: water) 97 % of control; (dose: 200.0 mg/kg/injection, schedule: Q01DX009 (ip), vehicle: water) 94 % of control; (dose: 400.0 mg/kg/injection, schedule: Q01DX009 (ip), vehicle: water) 96 % of control.
As to `Cc1cc(N(CCOS(C)(=O)=O)CCOS(C)(=O)=O)ccc1C=Nc1ccccc1C(=O)O`, the T/C was 124 % of control (dose: 2.5 mg/kg/injection, schedule: Q04DX003 (ip), vehicle: Klucel (hydroxypropylcellulose) (HPC)); 113 % of control (dose: 5.0 mg/kg/injection, schedule: Q04DX003 (ip), vehicle: Klucel (hydroxypropylcellulose) (HPC)); 109 % of control (dose: 10.0 mg/kg/injection, schedule: Q04DX003 (ip), vehicle: Klucel (hydroxypropylcellulose) (HPC)); 153 % of control (dose: 40.0 mg/kg/injection, schedule: Q04DX003 (ip), vehicle: Klucel (hydroxypropylcellulose) (HPC)).
As to `Cc1cccc(C)c1N(COCC(C)C)C(=O)CCl`, the T/C was 100 % of control under setting [4] and 100 % of control under setting [5].
On to `CNC1=C(C)C(=O)C2=C(C1=O)C(COC(N)=O)C1(O)C3C(CN21)N3C` (configuration not stated), for which the T/C was 100 % of control (dose: 6.6 mg/kg/injection, schedule: Q01DX001 (ip), vehicle: alcohol) and 104 % of control (dose: 15.0 mg/kg/injection, schedule: Q01DX001 (ip), vehicle: acetone).
Consider `CCCCN(CCCC)CCCC#N`, for which the T/C (dose: 25.0 mg/kg/injection, schedule: Q01DX009 (ip), vehicle: saline) is 105 % of control; the T/C (dose: 25.0 mg/kg/injection, schedule: Q04DX003 (ip), vehicle: saline) is 106 % of control; the T/C (dose: 50.0 mg/kg/injection, schedule: Q01DX009 (ip), vehicle: saline) was 103 % of control; the T/C under setting [6] is 100 % of control; the T/C (dose: 100.0 mg/kg/injection, schedule: Q01DX009 (ip), vehicle: saline) was 100 % of control; the T/C under setting [7] is 103 % of control and 105 % of control.
Consider `CCc1cc(C)cc(OC(=O)Nc2cc(Cl)ccc2C)c1`, for which the T/C runs as follows: under setting [8], 95 % of control; under setting [9], 90 % of control; under setting [10], 100 % of control.
`O=C1NCCO1`: the T/C is, setting by setting: under setting [6], 97 % of control; under setting [8], 103 % of control; under setting [11], 105 % of control; under setting [7], 102 % of control and 106 % of control; under setting [9], 105 % of control; under setting [12], 103 % of control. Also, the T/C by setting is: (dose: 200.0 mg/kg/injection, schedule: Q04DX003 (ip), vehicle: saline) 95 % of control and 92 % of control and 103 % of control; under setting [10], 103 % of control; under setting [13], 103 % of control; (dose: 400.0 mg/kg/injection, schedule: Q04DX003 (ip), vehicle: saline) 103 % of control and 105 % of control.
`COc1cc(CCCc2ccc(O)c(=O)cc2)cc(OC)c1OC`: the T/C reads like this: under setting [1], 111 % of control; under setting [2], 94 % of control; under setting [3], 94 % of control.
With `CCCS(=O)(=O)N(CC(=O)O)Cc1ccccc1`, the T/C (dose: 50.0 mg/kg/injection, schedule: Q01DX009 (ip), vehicle: other) was 110 % of control; the T/C (dose: 100.0 mg/kg/injection, schedule: Q01DX009 (ip), vehicle: other) was 106 % of control and 107 % of control; the T/C under setting [1] is 101 % of control; the T/C (dose: 200.0 mg/kg/injection, schedule: Q01DX009 (ip), vehicle: other) was 112 % of control and 115 % of control; the T/C under setting [2] is 104 % of control; the T/C (dose: 400.0 mg/kg/injection, schedule: Q01DX009 (ip), vehicle: other) was 104 % of control. Moreover, the T/C under setting [3] was 100 % of control.
On to `C(=N\Nc1nnc(N/N=C/c2cccc3ccccc23)c2ccccc12)/c1cccc2ccccc12`, for which the T/C reads like this: (dose: 50.0 mg/kg/injection, schedule: Q01DX001 (ip), vehicle: saline) 92 % of control; under setting [14], 92 % of control; under setting [15], 92 % of control; under setting [16], 92 % of control.
Turning to `O=c1cc(CO)oc(C(Nc2ccccc2)c2ccccc2)c1O` (configuration not stated), the T/C is, setting by setting: under setting [14], 91 % of control; under setting [15], 97 % of control; under setting [16], 95 % of control.
Turning to `CC1=C(O)c2ccccc2C(=O)C1=O`, where the note is “dose: 50.0 mg/kg/injection, schedule: Q01DX Z (ip), vehicle: other”, the T/C was 93 % of control.
Consider `Oc1ccc[n+](CCCl)c1`, for which the T/C is 96 % of control (dose: 6.25 mg/kg/injection, schedule: Q01DX015 (ip), vehicle: saline); 100 % of control (dose: 12.5 mg/kg/injection, schedule: Q01DX015 (ip), vehicle: saline); 104 % of control (dose: 25.0 mg/kg/injection, schedule: Q01DX015 (ip), vehicle: saline); 100 % of control (dose: 50.0 mg/kg/injection, schedule: Q01DX015 (ip), vehicle: saline); 100 % of control (dose: 100.0 mg/kg/injection, schedule: Q01DX015 (ip), vehicle: saline); 96 % of control (dose: 200.0 mg/kg/injection, schedule: Q01DX015 (ip), vehicle: saline). In addition, the T/C (dose: 300.0 mg/kg/injection, schedule: Q01DX015 (ip), vehicle: saline) is 100 % of control.
As for `O=[N+]([O-])c1ccc(/C=C/CCOc2ccccc2)cc1`, the T/C is, setting by setting: under setting [8], 98 % of control; under setting [11], 97 % of control; under setting [9], 96 % of control; under setting [12], 105 % of control; under setting [10], 91 % of control; under setting [13], 105 % of control.
On to `Nc1c(Br)cc2c(c1Br)Cc1cc([N+](=O)[O-])ccc1-2`, for which the T/C reads like this: under setting [1], 104 % of control; under setting [2], 103 % of control; under setting [3], 98 % of control.
Consider `COc1ccc(NC(=O)NCc2cccc(Cl)c2)cc1`, for which the T/C (dose: 50.0 mg/kg/injection, schedule: Q04DX002 (ip), vehicle: Klucel (hydroxypropylcellulose) (HPC)) is 100 % of control; the T/C (dose: 100.0 mg/kg/injection, schedule: Q04DX002 (ip), vehicle: Klucel (hydroxypropylcellulose) (HPC)) is 103 % of control and 107 % of control; the T/C (dose: 200.0 mg/kg/injection, schedule: Q04DX002 (ip), vehicle: Klucel (hydroxypropylcellulose) (HPC)) is 98 % of control; the T/C (dose: 400.0 mg/kg/injection, schedule: Q04DX002 (ip), vehicle: Klucel (hydroxypropylcellulose) (HPC)) was 110 % of control and 92 % of control.
As for `C#CC(O)C1OC(C)(C)OC1C1COC(C)(C)O1` (configuration not stated), the T/C runs as follows: under setting [11], 97 % of control; under setting [12], 92 % of control; under setting [13], 94 % of control.
For `c1ccc([Si](OO[Si](c2ccccc2)(c2ccccc2)c2ccccc2)(c2ccccc2)c2ccccc2)cc1`, the T/C is, setting by setting: under setting [4], 86 % of control; under setting [5], 87 % of control.

The values are drawn from PubChem BioAssay AID248 (DTP/NCI, 2004).
